Data published in the NIST ThermoML archive (doi:10.1016/j.fluid.2014.09.017).
Values joined by “and” are separate entries in the source; they are usually repeats but may differ in a detail not shown here. Equal values may be shown once. ± gives the expanded uncertainty stated by the source.

Conditions: for vapor or sublimation pressure: Liquid, Closed cell (Static) method; for speed of sound: Gas, Cylindrical cavity resonance method

CC(C)C [2-methylpropane]
Conditions | vapor or sublimation pressure
258.92 K | 91.82 ± 0.62 kPa
264.24 K | 112.99 ± 0.63 kPa
265.67 K | 119.32 ± 0.63 kPa
267.2 K | 126.35 ± 0.64 kPa
273 K | 156 ± 0.65 kPa
273.15 K | 156.85 ± 0.65 kPa
275.31 K | 169.22 ± 0.66 kPa
278.94 K | 191.71 ± 0.67 kPa
280 K | 198.68 ± 0.68 kPa
281.24 K | 207.12 ± 0.69 kPa
282.81 K | 218.08 ± 0.69 kPa
284.02 K | 226.9 ± 0.7 kPa
285.82 K | 240.51 ± 0.71 kPa
287.25 K | 251.7 ± 0.72 kPa
288.67 K | 263.24 ± 0.73 kPa
290 K | 274.38 ± 0.74 kPa
291.96 K | 291.5 ± 0.75 kPa
291.99 K | 291.68 ± 0.75 kPa
293.5 K | 305.47 ± 0.77 kPa
294.79 K | 317.56 ± 0.78 kPa
296.3 K | 332.18 ± 0.79 kPa
299.97 K | 369.83 ± 0.83 kPa
301.05 K | 381.52 ± 0.84 kPa
302.76 K | 400.6 ± 0.86 kPa
304.46 K | 420.14 ± 0.88 kPa
305.97 K | 438.06 ± 0.9 kPa and 438.12 ± 0.9 kPa
307.39 K | 455.55 ± 0.92 kPa
308.82 K | 473.64 ± 0.94 kPa
310 K | 488.84 ± 0.96 kPa
312.11 K | 516.99 ± 0.99 kPa
314.51 K | 550.49 ± 1 kPa
314.52 K | 550.72 ± 1 kPa
316.61 K | 581.22 ± 1.1 kPa
320 K | 633.44 ± 1.1 kPa
322 K | 665.79 ± 1.2 kPa
324.13 K | 701.6 ± 1.2 kPa
326 K | 734.19 ± 1.3 kPa and 734.22 ± 1.3 kPa
326.58 K | 744.59 ± 1.3 kPa
328 K | 770.36 ± 1.3 kPa
328.63 K | 781.99 ± 1.3 kPa
330 K | 807.67 ± 1.4 kPa
332 K | 846.32 ± 1.4 kPa
332.15 K | 849.38 ± 1.4 kPa
334 K | 886.42 ± 1.5 kPa
334.71 K | 900.88 ± 1.5 kPa
338.87 K | 989.76 ± 1.6 kPa
342 K | 1060.5 ± 1.7 kPa
342.57 K | 1073.8 ± 1.7 kPa
344 K | 1107.8 ± 1.8 kPa
344.84 K | 1128.1 ± 1.8 kPa
347.48 K | 1193.6 ± 1.9 kPa
350 K | 1258.8 ± 2 kPa
354.89 K | 1392.5 ± 2.2 kPa
357.13 K | 1457.2 ± 2.3 kPa
360 K | 1543.1 ± 2.5 kPa
362.41 K | 1618.3 ± 2.6 kPa
364.65 K | 1690.7 ± 2.7 kPa
367.12 K | 1773.1 ± 2.8 kPa
370 K | 1872.6 ± 3 kPa
373.25 K | 1990.5 ± 3.2 kPa
375.82 K | 2087.2 ± 3.3 kPa
377.95 K | 2170.2 ± 3.5 kPa
380 K | 2252.2 ± 3.6 kPa
382.69 K | 2363.4 ± 3.8 kPa
385.14 K | 2468.3 ± 3.9 kPa
387.96 K | 2593.6 ± 4.1 kPa
390 K | 2687.2 ± 4.3 kPa
390.02 K | 2688.3 ± 4.3 kPa
392.64 K | 2812.8 ± 4.5 kPa
392.7 K | 2815.5 ± 4.5 kPa
394.37 K | 2897.1 ± 4.6 kPa
394.77 K | 2917.1 ± 4.6 kPa
397.49 K | 3055 ± 4.9 kPa
399.62 K | 3166.9 ± 5 kPa
400 K | 3187.2 ± 5.1 kPa
400.09 K | 3191.9 ± 5.1 kPa
400.19 K | 3197.4 ± 5.1 kPa
402.45 K | 3320.9 ± 5.3 kPa
402.46 K | 3321.8 ± 5.3 kPa
403.93 K | 3404.5 ± 5.4 kPa
404.71 K | 3449.2 ± 5.5 kPa
405 K | 3465.7 ± 5.5 kPa
405.99 K | 3523.6 ± 5.6 kPa

Conditions | speed of sound [m/s]
270 K, 54.63 kPa | 203.09 ± 0.073
270 K, 68.26 kPa | 202.24 ± 0.073
270 K, 75.99 kPa | 201.75 ± 0.073
270 K, 86.24 kPa | 201.09 ± 0.073
270 K, 94.7 kPa | 200.54 ± 0.073
270 K, 103.06 kPa | 200 ± 0.073
270 K, 111.76 kPa | 199.42 ± 0.072
280 K, 52.41 kPa | 206.99 ± 0.073
280 K, 62.45 kPa | 206.43 ± 0.073
280 K, 70.73 kPa | 205.97 ± 0.073
280 K, 82.68 kPa | 205.28 ± 0.073
280 K, 94.96 kPa | 204.58 ± 0.073
280 K, 108.81 kPa | 203.77 ± 0.073
280 K, 121.29 kPa | 203.03 ± 0.072
280 K, 133.05 kPa | 202.32 ± 0.072
280 K, 145.5 kPa | 201.57 ± 0.072
290 K, 58.49 kPa | 210.38 ± 0.073
290 K, 78.62 kPa | 209.35 ± 0.073
290 K, 97.12 kPa | 208.38 ± 0.073
290 K, 116.17 kPa | 207.38 ± 0.073
290 K, 139.15 kPa | 206.14 ± 0.073
290 K, 147.23 kPa | 205.68 ± 0.072
290 K, 158.57 kPa | 205.07 ± 0.073
290 K, 161.39 kPa | 204.9 ± 0.073
290 K, 173.83 kPa | 204.22 ± 0.072
290 K, 177.47 kPa | 204 ± 0.073
290 K, 193.67 kPa | 203.09 ± 0.072
300 K, 37.47 kPa | 214.93 ± 0.074
300 K, 57.39 kPa | 214.01 ± 0.074
300 K, 80.89 kPa | 212.92 ± 0.073
300 K, 107.72 kPa | 211.65 ± 0.073
300 K, 127.82 kPa | 210.67 ± 0.073
300 K, 150.12 kPa | 209.58 ± 0.073
300 K, 168.57 kPa | 208.67 ± 0.073
300 K, 201.3 kPa | 207 ± 0.072
300 K, 235.37 kPa | 205.23 ± 0.072
310 K, 45.64 kPa | 218.03 ± 0.074
310 K, 76.78 kPa | 216.71 ± 0.074
310 K, 107.37 kPa | 215.4 ± 0.074
310 K, 141.66 kPa | 213.88 ± 0.073
310 K, 178.43 kPa | 212.23 ± 0.073
310 K, 212.65 kPa | 210.65 ± 0.073
310 K, 247.33 kPa | 209.01 ± 0.073
310 K, 299.72 kPa | 206.46 ± 0.072
320 K, 57.93 kPa | 220.96 ± 0.075
320 K, 83.1 kPa | 219.97 ± 0.075
320 K, 109.17 kPa | 218.94 ± 0.074
320 K, 159.3 kPa | 216.91 ± 0.074
320 K, 192.01 kPa | 215.56 ± 0.074
320 K, 262.64 kPa | 212.56 ± 0.073
320 K, 289.64 kPa | 211.37 ± 0.073
320 K, 343.58 kPa | 208.94 ± 0.072
320 K, 383.31 kPa | 207.1 ± 0.072
330 K, 39.62 kPa | 224.99 ± 0.076
330 K, 69.47 kPa | 223.92 ± 0.075
330 K, 107.25 kPa | 222.55 ± 0.075
330 K, 151.31 kPa | 220.92 ± 0.075
330 K, 195.14 kPa | 219.27 ± 0.074
330 K, 246.95 kPa | 217.27 ± 0.074
330 K, 297.38 kPa | 215.27 ± 0.073
330 K, 339.74 kPa | 213.55 ± 0.073
330 K, 422.84 kPa | 210.06 ± 0.072
330 K, 480.1 kPa | 207.54 ± 0.072
